The values below come from patent publication US20230265151A1, “GIP/GLP1 CO-AGONIST COMPOUNDS” (priority 2020, published 2023).

Like-named read-outs stand apart in the source and are kept apart here.

What all share (type): cell-based
For one test, the target named is T1, hGIPR (Homo sapiens, UniProt P48546).
T1 construct: expressed in transfected cells
T1 sequence (P48546 22-466): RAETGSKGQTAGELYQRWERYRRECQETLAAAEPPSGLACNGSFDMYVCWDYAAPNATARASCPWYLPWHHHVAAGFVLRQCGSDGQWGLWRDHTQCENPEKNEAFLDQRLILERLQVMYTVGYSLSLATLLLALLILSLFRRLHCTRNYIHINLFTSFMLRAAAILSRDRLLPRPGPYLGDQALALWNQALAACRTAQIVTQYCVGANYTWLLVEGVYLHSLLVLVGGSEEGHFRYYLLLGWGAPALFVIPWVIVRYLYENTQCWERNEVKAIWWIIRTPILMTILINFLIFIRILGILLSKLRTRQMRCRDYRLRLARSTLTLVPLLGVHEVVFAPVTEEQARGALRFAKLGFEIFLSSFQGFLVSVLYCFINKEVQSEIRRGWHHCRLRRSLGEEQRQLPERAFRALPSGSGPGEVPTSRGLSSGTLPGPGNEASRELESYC
Put plainly: Functional cAMP formation (HTRF) in HEK-293 clonal cells expressing hGIPR, 0.1% bovine casein, without or with 1.0% human serum albumin. The settings on record: for Emax: percent of maximal response to GIP(1-42)NH2; for EC50: geometric mean. In a few lines: (§1)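 Cells were stimulated with peptide for 30 min at 37° C, then intracellular cAMP was measured by competitive HTRF (665/620 nm ratio) and converted to nM using a cAMP standard curve. Relative EC50 and Emax came from four-parameter logistic fits of percent maximal response against peptide concentration.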
(In general: cAMP levels reflect the balance of adenylyl cyclase and phosphodiesterase activity.)

The next test concerns the target T2, hGCGR (Homo sapiens, UniProt P47871).
T2 construct: expressed in transfected cells
The experiment in a line: Functional cAMP formation (HTRF) in HEK-293 clonal cells expressing hGCGR, 0.1% bovine casein, without or with 1.0% human serum albumin. A digest of the protocol: as §1

The target in another test is hGLP-1R (Homo sapiens, UniProt P43220). Put plainly: Functional cAMP formation (HTRF) in HEK-293 clonal cells expressing hGLP-1R, 0.1% bovine casein, without or with 1.0% human serum albumin. The arrangement: expressed in transfected cells. In a few lines: as §1
hGLP-1R, sequence (P43220 24-463): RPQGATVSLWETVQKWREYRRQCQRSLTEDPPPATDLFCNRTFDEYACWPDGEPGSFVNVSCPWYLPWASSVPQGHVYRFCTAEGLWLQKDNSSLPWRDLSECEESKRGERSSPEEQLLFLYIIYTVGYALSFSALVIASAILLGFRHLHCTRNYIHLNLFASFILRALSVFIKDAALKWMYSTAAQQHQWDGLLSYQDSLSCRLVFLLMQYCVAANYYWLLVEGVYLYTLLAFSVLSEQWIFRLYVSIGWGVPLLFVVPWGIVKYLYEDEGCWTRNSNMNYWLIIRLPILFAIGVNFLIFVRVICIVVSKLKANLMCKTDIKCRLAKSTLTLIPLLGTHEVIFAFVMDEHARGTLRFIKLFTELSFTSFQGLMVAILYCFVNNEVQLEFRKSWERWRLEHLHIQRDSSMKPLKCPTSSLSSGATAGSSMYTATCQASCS
[1] abbreviates: HEK293, read-out: hGIPR Emax, % ± SEM, 0.1% bovine casein and 1.0% human serum albumin, 37° C.
Where [2] appears, read: hGIPR EC50, nM (SEM, n), cAMP, incubated at 37° C., 0.1% bovine casein (no human serum albumin).
[3] abbreviates: hGCGR EC50, nM (SEM, n), 0.1% bovine casein and 1.0% human serum albumin, 37° C., geometric mean.
Where [4] appears, read: hGCGR EC50, nM (SEM, n), cAMP, incubated at 37° C., 0.1% bovine casein (no human serum albumin), geometric mean.
The mark [5] stands for this setting: hGLP-1R EC50, nM (SEM, n), 0.1% bovine casein and 1.0% human serum albumin, 37° C., geometric mean.
Where [6] appears, read: hGLP-1R EC50, nM (SEM, n), cAMP, incubated at 37° C., 0.1% bovine casein (no human serum albumin), geometric mean.

T2 sequence (P47871 26-477): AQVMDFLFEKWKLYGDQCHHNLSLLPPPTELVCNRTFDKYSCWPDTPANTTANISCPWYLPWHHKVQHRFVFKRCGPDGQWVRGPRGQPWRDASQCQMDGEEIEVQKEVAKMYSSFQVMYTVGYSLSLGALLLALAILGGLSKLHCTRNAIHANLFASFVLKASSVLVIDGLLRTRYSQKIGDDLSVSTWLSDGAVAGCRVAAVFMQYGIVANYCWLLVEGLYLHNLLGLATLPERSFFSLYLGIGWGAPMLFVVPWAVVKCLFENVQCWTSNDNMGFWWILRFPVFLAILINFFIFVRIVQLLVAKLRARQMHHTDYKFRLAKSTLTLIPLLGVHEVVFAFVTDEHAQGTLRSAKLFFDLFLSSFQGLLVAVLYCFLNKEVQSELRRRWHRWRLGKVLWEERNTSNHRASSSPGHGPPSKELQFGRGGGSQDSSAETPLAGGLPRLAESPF

Consider `CC[C@H](C)[C@H](NC(=O)[C@H](CC(C)C)NC(=O)[C@](C)(Cc1ccc(O)cc1)NC(=O)[C@@H](CCC(=O)O)NC(=O)[C@@H](NC(=O)[C@H](Cc1ccccc1)NC(=O)[C@H](CCCCNC(=O)COCCOCCNC(=O)COCCOCCNC(=O)CC[C@H](NC(=O)CCCCCCCCCOc1ccc(C(=O)O)cc1)C(=O)O)NC(=O)C(C)(C)NC(=O)[C@H](CCC(N)=O)NC(=O)[C@H](C)NC(=O)[C@H](CCCCNC(=O)COCCOCCNC(=O)COCCOCCNC(=O)CC[C@H](NC(=O)CCCCCCCCCOc1ccc(C(=O)O)cc1)C(=O)O)NC(=O)[C@H](CCCN)NC(=O)[C@H](CC(=O)O)NC(=O)[C@H](CC(C)C)NC(=O)[C@](C)(CC(C)C)NC(=O)[C@@H](NC(=O)C(C)(C)NC(=O)[C@H](Cc1ccc(O)cc1)NC(=O)[C@H](CC(=O)O)NC(=O)[C@H](CO)NC(=O)[C@@H](NC(=O)[C@](C)(Cc1ccccc1F)NC(=O)[C@@H](NC(=O)CNC(=O)[C@H](CCC(=O)O)NC(=O)C(C)(C)NC(=O)[C@@H](N)Cc1ccc(O)cc1)[C@@H](C)O)[C@@H](C)O)[C@@H](C)CC)[C@@H](C)CC)C(=O)N[C@@H](CCC(=O)O)C(=O)NCC(=O)NCC(=O)N1CCC[C@H]1C(=O)N[C@@H](CO)C(=O)N[C@@H](CO)C(=O)NCC(=O)N[C@@H](C)C(=O)N1CCC[C@H]1C(=O)N1CCC[C@H]1C(=O)N1CCC[C@H]1C(=O)N[C@@H](CO)C(N)=O` [Example 236], for which the Emax on hGIPR (setting [1]) is 80.5%; on hGLP-1R (HEK293, read-out: hGLP-1R Emax, % ± SEM, 0.1% bovine casein and 1.0% human serum albumin, 37° C., percent of maximal response to GLP-1(7-36)NH2), 125%; on hGLP-1R (HEK293, read-out: hGLP-1R Emax, % ± SEM, percent of maximal response to GLP-1(7-36)NH2, 37° C., 0.1% bovine casein, arithmetic mean), 96.5%. For the same molecule, the concentration giving a half-maximal response (EC50) on hGIPR (setting [2]) was 0.0154 nM; on hGCGR (setting [3]) it was > 9950 nM; at hGCGR (setting [4]), > 9950 nM; on hGLP-1R (setting [5]) it was 32.6 nM; on hGLP-1R (setting [6]) it was 0.336 nM.
In the case of `CC[C@H](C)[C@H](NC(=O)[C@H](CC(C)C)NC(=O)[C@](C)(Cc1ccc(O)cc1)NC(=O)[C@@H](CCC(=O)O)NC(=O)[C@@H](NC(=O)[C@H](Cc1ccccc1)NC(=O)[C@H](CCC(=O)O)NC(=O)C(C)(C)NC(=O)[C@H](CCC(N)=O)NC(=O)[C@H](C)NC(=O)[C@H](CCCCNC(=O)COCCOCCNC(=O)COCCOCCNC(=O)CC[C@H](NC(=O)CCCCCCCCCCCCC(=O)O)C(=O)O)NC(=O)[C@H](CCCN)NC(=O)[C@H](CC(=O)O)NC(=O)[C@H](CC(C)C)NC(=O)[C@](C)(CC(C)C)NC(=O)[C@@H](NC(=O)C(C)(C)NC(=O)[C@H](Cc1ccc(O)cc1)NC(=O)[C@H](CC(=O)O)NC(=O)[C@H](CO)NC(=O)[C@@H](NC(=O)[C@](C)(Cc1ccccc1F)NC(=O)[C@@H](NC(=O)CNC(=O)[C@H](CCC(=O)O)NC(=O)C(C)(C)NC(=O)[C@@H](N)Cc1ccc(O)cc1)[C@@H](C)O)[C@@H](C)O)[C@@H](C)CC)[C@@H](C)CC)C(=O)N[C@@H](CCCCNC(=O)COCCOCCNC(=O)COCCOCCNC(=O)CC[C@H](NC(=O)CCCCCCCCCCCCC(=O)O)C(=O)O)C(=O)NCC(=O)NCC(=O)N1CCC[C@H]1C(=O)N[C@@H](CO)C(=O)N[C@@H](CO)C(=O)NCC(=O)N[C@@H](C)C(=O)N1CCC[C@H]1C(=O)N1CCC[C@H]1C(=O)N1CCC[C@H]1C(=O)N[C@@H](CO)C(N)=O` [Example 231], the half-maximal effective concentration (EC50) at hGIPR (0.1% bovine casein and 1.0% human serum albumin, 37° C., read-out: hGIPR EC50, nM (SEM, n)) was 2.46 nM; on hGIPR (cAMP, incubated at 37° C., 0.1% bovine casein (no human serum albumin), read-out: hGIPR EC50, nM (SEM, n)), 0.0184 nM; at hGCGR (0.1% bovine casein and 1.0% human serum albumin, 37° C., geometric mean, read-out: hGCGR EC50, nM (SEM, n)), > 9950 nM; at hGCGR (cAMP, incubated at 37° C., 0.1% bovine casein (no human serum albumin), geometric mean, read-out: hGCGR EC50, nM (SEM, n)), > 9950 nM; at hGLP-1R (cAMP, incubated at 37° C., 0.1% bovine casein (no human serum albumin), geometric mean, read-out: hGLP-1R EC50, nM (SEM, n)), 1.22 nM. Further, the Emax on hGIPR (HEK293, 0.1% bovine casein and 1.0% human serum albumin, 37° C., read-out: hGIPR Emax, % ± SEM) turned out to be 85.4%; at hGLP-1R (HEK293, 0.1% bovine casein and 1.0% human serum albumin, 37° C., percent of maximal response to GLP-1(7-36)NH2, read-out: hGLP-1R Emax, % ± SEM), 109%.
`CC[C@H](C)[C@H](NC(=O)[C@H](CC(C)C)NC(=O)[C@](C)(Cc1ccc(O)cc1)NC(=O)[C@H](CCCCNC(=O)COCCOCCNC(=O)CCCCCCCNC(=O)CC[C@H](NC(=O)CCCCCCCCCCCCC(=O)O)C(=O)O)NC(=O)[C@@H](NC(=O)[C@H](Cc1ccccc1)NC(=O)[C@H](CCCN)NC(=O)C(C)(C)NC(=O)[C@H](CCC(N)=O)NC(=O)[C@H](C)NC(=O)[C@H](CCC(N)=O)NC(=O)[C@H](CCCN)NC(=O)[C@H](CC(=O)O)NC(=O)[C@H](CC(C)C)NC(=O)[C@](C)(CC(C)C)NC(=O)[C@@H](NC(=O)C(C)(C)NC(=O)[C@H](Cc1ccncc1)NC(=O)[C@H](CC(=O)O)NC(=O)[C@H](CO)NC(=O)[C@@H](NC(=O)[C@](C)(Cc1ccccc1F)NC(=O)[C@@H](NC(=O)CNC(=O)[C@H](CCC(=O)O)NC(=O)C(C)(C)NC(=O)[C@@H](N)Cc1ccc(O)cc1)[C@@H](C)O)[C@@H](C)O)[C@@H](C)CC)[C@@H](C)CC)C(=O)N[C@@H](CCCCNC(=O)COCCOCCNC(=O)CCCCCCCNC(=O)CC[C@H](NC(=O)CCCCCCCCCCCCC(=O)O)C(=O)O)C(=O)NCC(=O)NCC(=O)N1CCC[C@H]1C(=O)N[C@@H](CO)C(=O)N[C@@H](CO)C(=O)NCC(=O)N[C@@H](C)C(=O)N1CCC[C@H]1C(=O)N1CCC[C@H]1C(=O)N1CCC[C@H]1C(=O)N[C@@H](CO)C(N)=O` [Example 450]: the maximum response (Emax) on hGIPR (HEK293, cAMP, 37° C., 0.1% bovine casein and 1.0% human serum albumin, read-out: hGIPR Emax, % ± SEM) stood at 91.4%; at hGLP-1R (HEK293, cAMP, 37° C., 0.1% bovine casein, percent of maximal response to GLP-1(7-36)NH2, arithmetic mean, read-out: hGLP-1R Emax, % ± SEM), 120%. For the same molecule, the half-maximal effective concentration (EC50) is 0.0138 nM on hGIPR (cAMP, 37° C., 0.1% bovine casein (no human serum albumin), read-out: hGIPR EC50, nM (SEM, n)); > 9950 nM on hGCGR (cAMP, 37° C., 0.1% bovine casein (no human serum albumin), geometric mean, read-out: hGCGR EC50, nM (SEM, n)); > 9950 nM on hGCGR (cAMP, 37° C., 0.1% bovine casein and 1.0% human serum albumin, geometric mean (SEM, n), read-out: hGCGR EC50, nM (SEM, n)); 0.201 nM at hGLP-1R (cAMP, 37° C., 0.1% bovine casein (no human serum albumin), geometric mean, read-out: hGLP-1R EC50, nM (SEM, n)); 32.3 nM at hGLP-1R (cAMP, 37° C., 0.1% bovine casein and 1.0% human serum albumin, geometric mean (SEM, n), read-out: hGLP-1R EC50, nM (SEM, n)).
On to `CC[C@H](C)[C@H](NC(=O)[C@H](CC(C)C)NC(=O)[C@](C)(Cc1ccc(O)cc1)NC(=O)[C@H](CCCCNC(=O)COCCOCCNC(=O)CC[C@H](NC(=O)CCCCCCCCCCCCC(=O)O)C(=O)O)NC(=O)[C@@H](NC(=O)[C@H](Cc1ccccc1)NC(=O)[C@H](CCC(=O)O)NC(=O)C(C)(C)NC(=O)[C@H](CCC(N)=O)NC(=O)[C@H](C)NC(=O)[C@H](CCCCNC(=O)COCCOCCNC(=O)CC[C@H](NC(=O)CCCCCCCCCCCCC(=O)O)C(=O)O)NC(=O)[C@H](CCCN)NC(=O)[C@H](CC(=O)O)NC(=O)[C@H](CC(C)C)NC(=O)[C@](C)(CC(C)C)NC(=O)[C@@H](NC(=O)[C@H](CO)NC(=O)[C@H](Cc1ccncc1)NC(=O)[C@H](CC(=O)O)NC(=O)[C@H](CO)NC(=O)[C@@H](NC(=O)[C@](C)(Cc1ccccc1F)NC(=O)[C@@H](NC(=O)CNC(=O)[C@H](CCC(=O)O)NC(=O)C(C)(C)NC(=O)[C@@H](N)Cc1ccc(O)cc1)[C@@H](C)O)[C@@H](C)O)[C@@H](C)CC)[C@@H](C)CC)C(=O)N[C@@H](CCC(=O)O)C(=O)NCC(=O)NCC(=O)N1CCC[C@H]1C(=O)N[C@@H](CO)C(=O)N[C@@H](CO)C(=O)NCC(=O)N[C@@H](C)C(=O)N1CCC[C@H]1C(=O)N1CCC[C@H]1C(=O)N1CCC[C@H]1C(=O)N[C@@H](CO)C(N)=O` [Example 79], for which the maximum response (Emax) at hGIPR (setting [1]) was determined as 95%. Also, the EC50 at hGIPR (hGIPR EC50, nM (SEM, n), 0.1% bovine casein and 1.0% human serum albumin, 37° C.) was 2.31 nM; at hGIPR (setting [2]) it was 0.013 nM; on hGCGR (setting [3]), > 9950 nM; on hGCGR (setting [4]), > 9950 nM; on hGLP-1R (setting [5]), 15.1 nM; on hGLP-1R (setting [6]), 0.223 nM.

As usually defined, the Emax is the greatest response seen or fitted, relative to the assay's reference. Usually EC50 stands for the concentration at which the effect is half-maximal.
